Experimental data as given in patent US9321776B2, “Isochromene derivatives as phoshoinositide 3-kinases inhibitors” (CHIESI FARMACEUTICI S.p.A., priority 2013, dated 2016).
Structures can show the parent of a compound that is named as a salt.

Key:
Assay in all cases: PI3K enzyme inhibitory activity in the cell free assay (ADP-Glo Kinase Assay)
Type in all cases: biochemical
PI3Kγ = molecular target: T1, PI3Kγ (Homo sapiens, UniProt P48736); settings: human recombinant PI3Kγ, ATP 30 μM; read-out: PI3K gamma inhibition
T1 construct: purchased Millipore Ltd (Billerica, Mass.)

PI3Kβ = molecular target: T2, PI3Kβ (Homo sapiens, UniProt P42338); settings: human recombinant PI3Kβ, ATP 100 μM; read-out: PI3K beta inhibition
T2 construct: purchased Millipore Ltd (Billerica, Mass.)

PI3Kα = molecular target: T3, PI3Kα (Homo sapiens, UniProt P42336); settings: human recombinant PI3Kα, ATP 50 μM; read-out: PI3K alpha inhibition
T3 construct: purchased Millipore Ltd (Billerica, Mass.)

PI3Kδ = molecular target: T4, PI3Kδ (Homo sapiens, UniProt O00329); settings: human recombinant PI3Kδ, ATP 80 μM; read-out: PI3K delta inhibition
T4 construct: purchased Millipore Ltd (Billerica, Mass.)
T4 sequence (O00329 1-1044): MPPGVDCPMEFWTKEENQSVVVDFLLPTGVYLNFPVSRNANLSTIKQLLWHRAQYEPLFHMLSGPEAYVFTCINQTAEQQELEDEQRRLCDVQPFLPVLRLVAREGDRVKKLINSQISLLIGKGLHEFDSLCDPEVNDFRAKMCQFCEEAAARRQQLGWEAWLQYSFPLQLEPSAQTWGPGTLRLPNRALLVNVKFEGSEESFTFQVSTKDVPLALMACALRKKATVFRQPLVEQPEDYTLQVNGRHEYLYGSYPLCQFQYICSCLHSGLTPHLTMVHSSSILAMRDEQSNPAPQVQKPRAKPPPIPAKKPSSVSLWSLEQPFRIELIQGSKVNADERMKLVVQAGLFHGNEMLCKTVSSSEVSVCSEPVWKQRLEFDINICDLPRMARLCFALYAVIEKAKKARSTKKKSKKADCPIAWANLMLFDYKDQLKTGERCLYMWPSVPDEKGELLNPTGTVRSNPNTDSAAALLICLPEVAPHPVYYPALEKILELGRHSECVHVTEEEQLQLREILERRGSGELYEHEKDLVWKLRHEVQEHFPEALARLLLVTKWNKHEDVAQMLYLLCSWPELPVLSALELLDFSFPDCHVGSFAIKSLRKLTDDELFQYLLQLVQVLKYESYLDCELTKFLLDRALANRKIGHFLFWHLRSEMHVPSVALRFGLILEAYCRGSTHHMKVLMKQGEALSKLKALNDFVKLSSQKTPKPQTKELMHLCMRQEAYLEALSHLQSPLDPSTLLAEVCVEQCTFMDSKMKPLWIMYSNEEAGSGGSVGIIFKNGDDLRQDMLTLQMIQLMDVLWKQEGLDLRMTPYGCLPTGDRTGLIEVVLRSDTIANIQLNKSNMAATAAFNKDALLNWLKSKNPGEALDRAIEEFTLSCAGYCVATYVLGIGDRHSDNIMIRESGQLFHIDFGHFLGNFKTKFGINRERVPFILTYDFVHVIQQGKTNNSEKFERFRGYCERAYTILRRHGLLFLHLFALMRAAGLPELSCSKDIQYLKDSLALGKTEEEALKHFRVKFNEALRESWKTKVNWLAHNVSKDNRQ

T1 sequence (P48736 whole entry): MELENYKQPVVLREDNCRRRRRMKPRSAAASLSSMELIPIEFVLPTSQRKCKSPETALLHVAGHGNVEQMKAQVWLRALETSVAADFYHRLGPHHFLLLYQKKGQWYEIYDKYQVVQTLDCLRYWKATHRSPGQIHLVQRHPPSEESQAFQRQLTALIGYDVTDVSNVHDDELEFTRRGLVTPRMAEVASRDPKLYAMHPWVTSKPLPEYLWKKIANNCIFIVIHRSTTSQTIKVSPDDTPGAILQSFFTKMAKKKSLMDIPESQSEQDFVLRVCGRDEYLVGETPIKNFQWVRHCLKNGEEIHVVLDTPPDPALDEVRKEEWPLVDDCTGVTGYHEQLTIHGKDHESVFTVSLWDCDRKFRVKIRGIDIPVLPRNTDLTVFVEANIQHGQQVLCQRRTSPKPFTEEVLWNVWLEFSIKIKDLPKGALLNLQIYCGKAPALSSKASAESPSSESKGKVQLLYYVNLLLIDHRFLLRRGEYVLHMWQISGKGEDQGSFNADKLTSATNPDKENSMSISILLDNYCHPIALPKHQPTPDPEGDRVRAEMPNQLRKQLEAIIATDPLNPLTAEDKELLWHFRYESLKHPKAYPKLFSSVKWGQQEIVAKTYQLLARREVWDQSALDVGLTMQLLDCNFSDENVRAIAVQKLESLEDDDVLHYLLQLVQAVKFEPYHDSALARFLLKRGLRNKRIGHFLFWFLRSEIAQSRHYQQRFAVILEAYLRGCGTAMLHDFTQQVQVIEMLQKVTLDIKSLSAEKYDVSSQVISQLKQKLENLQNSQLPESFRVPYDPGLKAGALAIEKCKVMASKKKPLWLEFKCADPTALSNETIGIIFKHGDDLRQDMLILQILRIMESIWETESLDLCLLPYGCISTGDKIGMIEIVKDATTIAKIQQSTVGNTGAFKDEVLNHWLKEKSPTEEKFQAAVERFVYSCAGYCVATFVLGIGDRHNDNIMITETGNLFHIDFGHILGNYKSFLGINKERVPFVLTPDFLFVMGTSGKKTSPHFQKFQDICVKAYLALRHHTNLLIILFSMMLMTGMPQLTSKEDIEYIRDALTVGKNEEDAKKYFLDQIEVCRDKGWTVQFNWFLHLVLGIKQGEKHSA
T3 sequence (P42336 whole entry): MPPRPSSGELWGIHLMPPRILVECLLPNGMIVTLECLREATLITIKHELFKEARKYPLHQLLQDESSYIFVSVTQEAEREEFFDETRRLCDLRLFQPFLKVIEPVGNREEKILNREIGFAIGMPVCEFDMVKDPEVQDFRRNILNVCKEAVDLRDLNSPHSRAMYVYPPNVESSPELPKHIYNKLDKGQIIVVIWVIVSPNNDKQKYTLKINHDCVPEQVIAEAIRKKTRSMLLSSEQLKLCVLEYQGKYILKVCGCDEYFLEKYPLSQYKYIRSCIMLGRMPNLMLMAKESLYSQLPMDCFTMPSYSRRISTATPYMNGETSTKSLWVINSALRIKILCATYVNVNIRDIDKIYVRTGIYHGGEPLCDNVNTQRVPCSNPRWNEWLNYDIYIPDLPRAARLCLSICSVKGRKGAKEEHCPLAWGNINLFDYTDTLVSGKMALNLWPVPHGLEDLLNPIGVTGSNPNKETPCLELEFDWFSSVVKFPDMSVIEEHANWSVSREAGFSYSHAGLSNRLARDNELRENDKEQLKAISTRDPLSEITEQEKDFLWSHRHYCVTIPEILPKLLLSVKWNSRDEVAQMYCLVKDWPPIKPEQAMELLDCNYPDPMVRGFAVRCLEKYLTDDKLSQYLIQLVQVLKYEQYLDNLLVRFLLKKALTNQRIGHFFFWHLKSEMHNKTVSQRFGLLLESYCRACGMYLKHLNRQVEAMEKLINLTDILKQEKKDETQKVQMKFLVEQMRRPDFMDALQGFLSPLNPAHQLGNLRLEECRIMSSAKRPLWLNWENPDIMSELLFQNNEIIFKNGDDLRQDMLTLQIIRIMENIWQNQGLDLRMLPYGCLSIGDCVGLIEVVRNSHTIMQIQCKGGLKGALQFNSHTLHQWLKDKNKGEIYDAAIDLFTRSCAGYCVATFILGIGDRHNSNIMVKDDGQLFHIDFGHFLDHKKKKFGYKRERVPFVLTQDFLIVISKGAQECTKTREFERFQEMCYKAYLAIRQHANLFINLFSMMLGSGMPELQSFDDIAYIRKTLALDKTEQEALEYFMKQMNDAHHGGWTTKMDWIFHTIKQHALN
T2 sequence (P42338 whole entry): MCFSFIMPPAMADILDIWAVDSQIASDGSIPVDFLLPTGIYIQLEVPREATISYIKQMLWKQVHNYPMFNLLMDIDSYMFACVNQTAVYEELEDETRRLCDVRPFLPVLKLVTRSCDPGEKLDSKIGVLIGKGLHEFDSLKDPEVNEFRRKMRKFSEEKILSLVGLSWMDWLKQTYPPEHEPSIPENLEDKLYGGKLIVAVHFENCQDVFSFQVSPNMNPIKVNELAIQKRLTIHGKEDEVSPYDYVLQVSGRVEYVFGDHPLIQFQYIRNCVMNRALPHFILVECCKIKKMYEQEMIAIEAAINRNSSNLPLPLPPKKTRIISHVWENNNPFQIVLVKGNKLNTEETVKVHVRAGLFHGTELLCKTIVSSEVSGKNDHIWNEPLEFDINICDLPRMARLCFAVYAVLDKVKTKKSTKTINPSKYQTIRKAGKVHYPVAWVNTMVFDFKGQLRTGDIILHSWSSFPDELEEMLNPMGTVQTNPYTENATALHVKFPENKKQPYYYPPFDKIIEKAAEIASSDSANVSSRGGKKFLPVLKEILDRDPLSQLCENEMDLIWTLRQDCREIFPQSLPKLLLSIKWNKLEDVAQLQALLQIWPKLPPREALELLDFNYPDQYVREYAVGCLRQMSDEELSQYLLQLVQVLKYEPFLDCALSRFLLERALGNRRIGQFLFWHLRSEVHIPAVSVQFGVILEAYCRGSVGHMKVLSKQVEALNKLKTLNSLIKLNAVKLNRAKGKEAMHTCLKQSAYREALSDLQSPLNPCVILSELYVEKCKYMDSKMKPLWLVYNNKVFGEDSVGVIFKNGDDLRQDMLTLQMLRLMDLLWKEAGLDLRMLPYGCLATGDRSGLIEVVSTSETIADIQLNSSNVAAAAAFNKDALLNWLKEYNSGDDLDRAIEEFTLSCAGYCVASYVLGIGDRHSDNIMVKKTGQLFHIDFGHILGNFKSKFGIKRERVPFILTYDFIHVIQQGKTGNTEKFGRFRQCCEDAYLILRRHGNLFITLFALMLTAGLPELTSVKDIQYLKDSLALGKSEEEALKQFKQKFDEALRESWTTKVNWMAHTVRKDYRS

SMILES | IC50 (PI3Kγ) [nM] | IC50 (PI3Kβ) [nM] | IC50 (PI3Kα) [nM] | IC50 (PI3Kδ) [nM]
CC(c1oc(=O)c2ccc(F)cc2c1-c1ccccc1)n1nc(-c2cc(O)cc(F)c2)c2c(N)ncnc21 (stereo not shown) [Example 165, 3-(1-(4-amino-3-(3-fluoro-5-hydroxyphenyl)-1H-pyrazolo[3,4-d]pyrimidin-1-yl)ethyl)-6-fluoro-4-phenyl-1H-isochromen-1-one] | 10 to 1000 | 10 to 1000 | > 1000 | < 10
CC(c1oc(=O)c2ccccc2c1C1=CCCN(Cc2ccccc2)C1)n1nc(-c2cc(O)cc(F)c2)c2c(N)ncnc21 (single isomer, unassigned) [Example 169a, 3-(1-(4-amino-3-(3-fluoro-5-hydroxyphenyl)-1H-pyrazolo[3,4-d]pyrimidin-1-yl)ethyl)-4-(1-benzyl-1,2,5,6-tetrahydropyridin-3-yl)-1H-isochromen-1-one hydrochloride single enantiomers] | 10 to 1000 | 10 to 1000 | > 1000 | < 10
CC(c1oc(=O)c2ccccc2c1C1=CCN(C(=O)CCCN(C)C)CC1)n1nc(-c2cc(O)cc(F)c2)c2c(N)ncnc21 (stereo not shown) [Example 146, 3-(1-(4-amino-3-(3-fluoro-5-hydroxyphenyl)-1H-pyrazolo[3,4-d]pyrimidin-1-yl)ethyl)-4-(1-(4-(dimethylamino)butanoyl)-1,2,3,6-tetrahydropyridin-4-yl)-1H-isochromen-1-one formate] | 10 to 1000 | 10 to 1000 | > 1000 | < 10
CC(c1oc(=O)c2ccccc2c1C1=CCN(C(=O)C2CN(C)C2)CC1)n1nc(-c2cc(O)cc(F)c2)c2c(N)ncnc21 (stereo not shown) [Example 151, 3-(1-(4-amino-3-(3-fluoro-5-hydroxyphenyl)-1H-pyrazolo[3,4-d]pyrimidin-1-yl)ethyl)-4-(1-(1-methylazetidine-3-carbonyl)-1,2,3,6-tetrahydropyridin-4-yl)-1H-isochromen-1-one formate] | 10 to 1000 | 10 to 1000 | > 1000 | 10 to 1000
CC(c1oc(=O)c2ccccc2c1C1=CCCN(Cc2ccccc2)C1)n1nc(-c2cc(O)cc(F)c2)c2c(N)ncnc21 (single isomer, unassigned) [Example 169b, 3-(1-(4-amino-3-(3-fluoro-5-hydroxyphenyl)-1H-pyrazolo[3,4-d]pyrimidin-1-yl)ethyl)-4-(1-benzyl-1,2,5,6-tetrahydropyridin-3-yl)-1H-isochromen-1-one hydrochloride single enantiomers] |  | 10 to 1000 | > 1000 | 
Cc1ccc2c(-c3ccccc3)c(C(C)n3nc(-c4cc(O)cc(F)c4)c4c(N)ncnc43)oc(=O)c2c1 (stereo not shown) [Example 162, 3-(1-(4-amino-3-(3-fluoro-5-hydroxyphenyl)-1H-pyrazolo[3,4-d]pyrimidin-1-yl)ethyl)-7-methyl-4-phenyl-1H-isochromen-1-one] | 10 to 1000 |  | > 1000 | 10 to 1000
CC(c1oc(=O)c2ccccc2c1C#CCN(C)C)n1nc(-c2cc(O)cc(F)c2)c2c(N)ncnc21 (stereo not shown) [Example 158, 3-(1-(4-amino-3-(3-fluoro-5-hydroxyphenyl)-1H-pyrazolo[3,4-d]pyrimidin-1-yl)ethyl)-4-(3-(dimethylamino)prop-1-yn-1-yl)-1H-isochromen-1-one hydrochloride] |  | 10 to 1000 | 10 to 1000 | 10 to 1000
O=c1oc(CNc2ncnc3[nH]cnc23)c(-c2ccccc2)c2ccccc12 [Example 29, 3-((9H-Purin-6-ylamino)methyl)-4-phenyl-1H-isochromen-1-one] | 10 to 1000 |  | > 1000 | 
CC(c1oc(=O)c2ccccc2c1-c1ccccc1)n1nc(-c2cc[nH]n2)c2c(N)ncnc21 (stereo not shown) [Example 111, 3-(1-(4-amino-3-(1H-pyrazol-3-yl)-1H-pyrazolo[3,4-d]pyrimidin-1-yl)ethyl)-4-phenyl-1H-isochromen-1-one] | 10 to 1000 |  | > 1000 | 10 to 1000
CC(c1oc(=O)c2ccccc2c1-c1cccc(CN2CCCCC2)c1)n1nc(-c2cc(O)cc(F)c2)c2c(N)ncnc21 (stereo not shown) [Example 143, 3-(1-(4-amino-3-(3-fluoro-5-hydroxyphenyl)-1H-pyrazolo[3,4-d]pyrimidin-1-yl)ethyl)-4-(3-(piperidin-1-ylmethyl)phenyl)-1H-isochromen-1-one, Formate] | > 1000 | 10 to 1000 |  | 10 to 1000
Nc1ncnc2c1ncn2Cc1oc(=O)c2ccccc2c1-c1ccccc1F [Example 3, 3-((6-Amino-9H-purin-9-yl)methyl)-4-(2-fluorophenyl)-1H-isochromen-1-one] | > 1000 | > 1000 |  | 10 to 1000
Nc1ncnc2c1ncn2Cc1oc(=O)c2ccccc2c1-c1cccc(F)c1 [Example 2, 3-((6-Amino-9H-purin-9-yl)methyl)-4-(3-fluorophenyl)-1H-isochromen-1-one] | > 1000 | > 1000 |  | 10 to 1000

The next lines start with the values.

IC50 (PI3Kγ) [nM] | IC50 (PI3Kβ) [nM] | IC50 (PI3Kα) [nM] | IC50 (PI3Kδ) [nM] | SMILES
10 to 1000 | 10 to 1000 | 10 to 1000 | 10 to 1000 | CC(NC(=O)c1c(N)nn2cccnc12)c1oc(=O)c2ccccc2c1-c1ccccc1 (stereo not shown) [Example 110, 2-amino-N-(1-(1-oxo-4-phenyl-1H-isochromen-3-yl)ethyl)pyrazolo[1,5-a]pyrimidine-3-carboxamide]
10 to 1000 | 10 to 1000 | > 1000 | < 10 | CC(c1oc(=O)c2ccccc2c1-c1cncs1)n1nc(-c2cc(O)cc(F)c2)c2c(N)ncnc21 (single isomer, unassigned) [Example 167b, 3-(1-(4-amino-3-(3-fluoro-5-hydroxyphenyl)-1H-pyrazolo[3,4-d]pyrimidin-1-yl)ethyl)-4-(thiazol-5-yl)-1H-isochromen-1-one single enantiomer]
10 to 1000 | 10 to 1000 | 10 to 1000 | < 10 | CC(c1oc(=O)c2ccccc2c1-c1ccccc1)n1nc(-c2cnc(N)s2)c2c(N)ncnc21 (stereo not shown) [Example 59, 3-(1-(4-amino-3-(2-aminothiazol-5-yl)-1H-pyrazolo[3,4-d]pyrimidin-1-yl)ethyl)-4-phenyl-1H-isochromen-1-one hydrochloride]
> 1000 | 10 to 1000 | 10 to 1000 | < 10 | CC(c1oc(=O)c2ccccc2c1C1=CCC(N)CC1)n1nc(-c2cc(O)cc(F)c2)c2c(N)ncnc21 (stereo not shown) [Example 103, 3-(1-(4-amino-3-(3-fluoro-5-hydroxyphenyl)-1H-pyrazolo[3,4-d]pyrimidin-1-yl)ethyl)-4-(4-aminocyclohex-1-en-1-yl)-1H-isochromen-1-one hydrochloride]
10 to 1000 | 10 to 1000 | 10 to 1000 | < 10 | CC(c1oc(=O)c2ccccc2c1C1=CCNCC1)n1nc(-c2cc(O)cc(Cl)c2)c2c(N)ncnc21 (stereo not shown) [Example 152, 3-(1-(4-amino-3-(3-chloro-5-hydroxyphenyl)-1H-pyrazolo[3,4-d]pyrimidin-1-yl)ethyl)-4-(1,2,3,6-tetrahydropyridin-4-yl)-1H-isochromen-1-one formate]
10 to 1000 |  | 10 to 1000 | 10 to 1000 | CC(c1oc(=O)c2ccccc2c1-c1ccccc1)n1nc(-c2cncc(NS(=O)(=O)c3ccc(F)cc3)c2)c2c(N)ncnc21 (stereo not shown) [Example 87, N-(5-(4-amino-1-(1-(1-oxo-4-phenyl-1H-isochromen-3-yl)ethyl)-1H-pyrazolo[3,4-d]pyrimidin-3-yl)pyridin-3-yl)-4-fluorobenzenesulfonamide]
10 to 1000 |  | > 1000 | < 10 | Cc1cccc(-c2c(C(C)n3nc(-c4cn[nH]c4)c4c(N)ncnc43)oc(=O)c3ccccc23)c1 (stereo not shown) [Example 42, 3-(1-(4-Amino-3-(1H-pyrazol-4-yl)-1H-pyrazolo[3,4-d]pyrimidin-1-yl)ethyl)-4-m-tolyl-1H-isochromen-1-one]
10 to 1000 | > 1000 |  | 10 to 1000 | CC(c1oc(=O)c2ccccc2c1-c1ccccc1)n1nc(-c2cccc3[nH]ncc23)c2c(N)ncnc21 (stereo not shown) [Example 112, 3-(1-(4-amino-3-(1H-indazol-4-yl)-1H-pyrazolo[3,4-d]pyrimidin-1-yl)ethyl)-4-phenyl-1H-isochromen-1-one]
